Measurements taken from patent US20100324086A1, “COMPOUNDS AND METHODS” (Novasaid AB, priority 2008, published 2010).

Experiments:
[1] = test system: A549 lung carcinoma cells; assay: A549 assay, PGE2 content in supernatant by EIA; format: cell-based; settings: Homo sapiens, A549; TNFalfa and IL-1beta induced 16 h; 30 min compound, then 10 μM arachidonic acid 30 min
Protocol: A549 lung carcinoma cells, seeded at a density of 10,000 cells/well, were grown in 96 well tissue culture plates. TNFalfa (5 ng/ml) and […] (5 ng/ml) were added and the cells were incubated for 16 hours. Cells were washed in PBS and test compounds at the appropriate concentration in HBSS/0.1% BSA were added. After 30 minutes incubation with test compounds, 10 μM arachidonic acid was added and cells were further incubated for 30 minutes. Supernatant was collected and analyzed for PGE2 content by EIA according to manufacturer's instructions.

[2] = target: T1, recombinant, membrane-bound mPGES-1 (Homo sapiens, UniProt O14684); assay: Thiobarbituric acid assay (TBA-MDA assay), inhibition of mPGES-1; format: biochemical; settings: remaining PGH2 measured at 535 nm
T1 sequence (O14684 1-152): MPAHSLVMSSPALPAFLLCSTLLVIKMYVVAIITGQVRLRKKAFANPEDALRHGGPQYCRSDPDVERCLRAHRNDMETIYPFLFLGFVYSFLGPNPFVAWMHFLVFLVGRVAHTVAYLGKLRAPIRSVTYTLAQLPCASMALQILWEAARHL
Source text: Malondialdehyde is a product of lipid peroxidation and reacts with thiobarbituric acid forming a red product that absorbs at 535 nm (W. G. Niehaus, Jr and B. Samuelsson, Eur. J. Biochem 6, 126 (1968). The extinction coefficient of the TBA-MDA conjugate is 1.56×10^5 M^−1 cm^−1 (E. D. Wills. Biochem. J. 113, 315 (1969).
The method used for detection of inhibition of mPGES-1 is based on the detection of the amount of remaining PGH2. This method was described more than 20 years ago by Basevich et al (Bioorg. Khim. 1983, 9(5), 658-665.
The assay used was a modified variant and used citric acid instead of the TCA-TBA-HCl reagent described in the original assay. In this assay recombinant, membrane-bound mPGES-1 was incubated with PGH2. The reaction was stopped by adding citric acid with a final pH of 3 and a large excess of FeCl2 (20 mM) to convert any remaining PGH2 into MDA and […]. TBA reagent was finally added (0.67%) and the samples were heated at 80° C. for 30 min. The absorbance of the conjugate was measured at 535 nm.
The product of mPGES-1 (PGE2) was not measured directly in this assay, but rather the remaining substrate (PGH2) indirectly by adding FeCl2 that converts PGH2 into […] and 12-HHT. As a positive control a known mPGES-1 inhibitor, MK-886, was used and the new inhibitors were compared with the inhibition of MK-886 (% of MK-886 inhibition).

- EC50 [1]: 1480 nM
- IC50 [2]: 260 nM
SMILES: O=C(NCc1cccc2ccccc12)c1cccc(NC(=O)c2ccccc2Cl)c1 [Compound 117, 2-Chloro-N-{3-[(naphthalen-1-ylmethyl)-carbamoyl]-phenyl}-benzamide]
